Holding throughout (format): cell-based
Data set [1] addresses T1, ACSS2 (Homo sapiens, UniProt Q9NR19).
T1 construct: endogenous fatty acid synthesis activity in the human HCT-15 cancer cell line; endogenous in cells; host or cells: HCT-15
Description: Cellular assay of 14C acetate incorporation into fatty acids (IC50 ACSS2 cellular lipids). As to conditions: HCT-15 cells. As to the method: This protocol describes a cellular assay capable to quantify endogenous fatty acid synthesis activity in the human HCT-15 cancer cell line following the incorporation of extracellularly administered radiolabeled ^14C acetate with a scintillation proximity based read out on extracted fatty acids.
HCT-15 cells were grown in RPMI 1640 (Gibco) supplemented with 2 mM glutamine, 1 mM sodium pyruvate 10 mM HEPES and 10 % FCS (heat-inactivated) passaged every 2-3 days to remain a subconfluent, vital culture. A working cell bank was prepared with each aliquot containing 1x10^7 viable cells. After thawing, these cells are dilute immediately 1:20 in pre-warmed (37° C.) culture medium. Cells are collected by centrifugation at 200 x g for 5 min, and the supernatant is replaced by 30 mL of fresh culture medium per aliquot to obtain a cell suspension containing 350000 cells/ml. From this cell suspension 100 µL are dispersed into each well of a collagen coated 96 well plate, (black, clear bottom, PS, F-bottom, Greiner) and culture for 24 h (37° C., 5% CO2). After incubation the culture medium is removed and the wells are washed once with 100 µL PBS++ (supplemented with Mg^2+/ Ca^2+, Gibco) and 50 µL assay medium (RPMI 1640 + 10 mM HEPES) are added to each well. Compounds serial dilutions are prepared from 10 mM stock solutions in DMSO using a fixed dilution factor (usually 1:3). After preparation of the dilution series in DMSO, the individual dilutions are further diluted in the assay medium. This working dilution is prepared such, that the concentration is 7x of the final concentration in the assay. The maximal DMSO concentration in the final assay is 0.1%.
To each well 10 µL compound working dilution or DMSO blank are added and the cells are cultured for 2 h (37° C., 5% CO2). Then 10 µL AlamarBlue reagent (Invitrogen) containing 14 µCi/mL ^14C-acetate (Perkin Elmer) are added to each well (70 µl total volume) and cells are again cultured for 2 h. Cell viability is verified by measuring the AlamarBlue fluorescence (Tecan Safire, ex: 544 nm / em: 590 nm). After incubation the culture medium is removed and the wells are carefully washed once with cold 100 µL PBS++. For cell lysis and fatty acid recovery 50 µl 0.1 M NaOH and 0.1 % Triton-X100 are added per well. The plate is sealed with PlateLoc (clear peelable heat seal, Agilent) and incubate at 70° C. for 16-24 h. After cooling to room temperature, the plates are centrifuged for 1 min at 1000 rpm and the plate seals are removed. For acidification 150 µL 0.1 M HCl are added to each well, mixed and 150 µL of the mixture are transferred into a 96 well FlashPlate (Perkin Elmer). The plates are sealed with TopSeaI-a (Perkin Elmer). To allow for the fatty acid binding to the well surfaces the plates are incubate for 4 h at 70° C. After cooling to room temperature, the plates are centrifuged for 1 min at 1000 rpm and stored for 0.5-2 h at room temperature in the dark. Radioactivity from ^14C incorporation into fatty acids in the wells is measured as CPM count in a MicroBeta scintillation counter (Perkin Elmer).

In a further data set the test system is CHO-K1 cells. Description: Micronucleus assay (MNT) in vitro. More on the design: key: A: negative, putative negative (micronuclei detected beyond threshold of 60% cyctotoxicity); B: positive. As to conditions: 24 hrs treatment, 0.2 µM to 100 µM. Here is the method: The in vitro MNT assay is performed in CHO-K1 cells due to their stable and welI-characterized karyotype, high sensitivity and suitability for a high content imaging approach. They have a basal spontaneous micronucleus frequency of 3-4%.
24 hrs after plating CHO-K1 cells are treated with test compounds for 24 hrs (in duplicates; fixed concentration ranges from 0.2 µM to 100 µM in 2-fold dilution steps). After a medium change cells are incubated for 24 hrs with Cytochalasin B to block cytokinesis and are then fixed and nuclei / micronuclei visualized with a DNA stain. Images are acquired with the Molecular Devices high content imagers IXU or IXM and are analyzed with the dedicated MetaXpress software micronucleus module. Criteria for scoring of micronuclei (MN) are the following: • diameter of the MN should be less than ⅓ of the main nucleus • MN should be separated from or marginally overlap with main nucleus (= no blebs) • MN should have similar staining as the main nucleus At least 1000 binucleated cells are evaluated per treatment replicate. Mitomycin C is used as reference stimulator of micronucleus formation. Cytotoxicity is evaluated in parallel and defined by comparing total nuclei count in compound-treated samples to neutral control samples treated with vehicle only (1% DMSO) (100% cytotoxicity means all cells are dead or lost).
A test compound is regarded as POSITIVE if generation of micronuclei and exhibition of less than 60% cytotoxicity at the same concentration can be observed.
Compounds are scored only in the soluble concentration range. Experimental data of the compounds shown in Table 1 in the MNT assay are shown in Table 2 below and classified in the following groups: […]

The target in data set [2] is T1, ACSS2. Description: Cellular assay of 14C acetate incorporation into histones (IC50 ACSS2 cellular histone). The settings on record: HCT-15 cells. Summed up: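 Human HCT-15 cells preincubated 1 h with compound (0.25% DMSO final), then pulsed 3 h with 14C-acetate. Histones were acid-extracted (0.2 M HCl, overnight, 4° C) after Triton lysis in sodium-butyrate buffer; incorporated 14C counted by liquid scintillation (CPM) to give IC50.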

T1 sequence (Q9NR19 whole entry): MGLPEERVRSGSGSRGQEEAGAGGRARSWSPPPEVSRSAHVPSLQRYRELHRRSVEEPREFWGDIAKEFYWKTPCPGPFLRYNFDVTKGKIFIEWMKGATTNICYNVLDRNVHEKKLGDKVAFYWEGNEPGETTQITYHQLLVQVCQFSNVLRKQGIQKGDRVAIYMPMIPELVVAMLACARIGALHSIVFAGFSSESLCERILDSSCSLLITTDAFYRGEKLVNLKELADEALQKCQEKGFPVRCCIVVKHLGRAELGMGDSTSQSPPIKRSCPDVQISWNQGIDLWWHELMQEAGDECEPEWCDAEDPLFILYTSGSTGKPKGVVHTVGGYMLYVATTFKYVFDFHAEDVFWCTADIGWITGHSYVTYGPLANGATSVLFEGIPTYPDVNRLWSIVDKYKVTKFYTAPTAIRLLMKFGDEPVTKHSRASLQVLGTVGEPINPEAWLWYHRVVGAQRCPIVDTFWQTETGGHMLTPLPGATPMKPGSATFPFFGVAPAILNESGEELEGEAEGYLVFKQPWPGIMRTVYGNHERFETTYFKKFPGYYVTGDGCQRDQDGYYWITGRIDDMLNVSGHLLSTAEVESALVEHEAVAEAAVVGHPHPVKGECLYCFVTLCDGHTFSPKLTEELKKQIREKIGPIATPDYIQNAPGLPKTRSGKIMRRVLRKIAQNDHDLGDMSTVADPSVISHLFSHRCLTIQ

Take `CCn1cnc(NC(=O)c2cc3c(nc2F)nc(C(O)(c2ccccc2F)c2ccccc2F)n3CC)n1` [Compound 91, 2-[bis(2-fluorophenyl)(hydroxy)methyl]-1-ethyl-N-(1-ethyl-1H-1,2,4-triazol-3-yl)-5-fluoro-1H-imidazo[4,5-b]pyridine-6-carboxamide]: the IC50 against ACSS2 [1] fell in the range of 1 to 10 nM; against ACSS2 [2], 0.01 to 1 nM. In the data set with CHO-K1 cells, the MNT entry is “A”.

With `CCc1c(C(O)(c2ccccc2)c2ccccc2)nn2cc(OC)c(C(=O)Nc3ncn(CC)n3)cc12` [Compound 11, 3-Ethyl-2-(hydroxy-diphenyl-methyl)-6-methoxy-pyrazolo[1,5-a]pyridine-5-carboxylic acid (1-ethyl-1H-[1,2,4]triazol-3-yl)-amide], the half-maximal inhibitory concentration (IC50) is 1 to 10 nM against ACSS2 [1] and 0.01 to 1 nM at ACSS2 [2]. The MNT result in the data set on CHO-K1 cells is listed as “A”.

Take `CCc1c(C(O)(c2ccccc2)c2ccccc2)nn2cc(OC)c(C(=O)Nc3cnn(CC)c3)cc12` [Compound 8, 3-Ethyl-2-(hydroxy-diphenyl-methyl)-6-methoxy-pyrazolo[1,5-a]pyridine-5-carboxylic acid (1-ethyl-1H-pyrazol-4-yl)-amide]: the results for the 50% inhibitory concentration (IC50) against ACSS2 [1] and against ACSS2 [2] were 10 to 100 nM and 1 to 10 nM, respectively. Moreover, in the data set on CHO-K1 cells, the MNT result is reported as “A”.

With `CCn1cnc(NC(=O)c2cc3c(nc2OC)nc(C(O)(c2ccccc2)c2ccccn2)n3CC)n1` (single isomer, unassigned) [Compound 53, 1-ethyl-N-(1-ethyl-1H-1,2,4-triazol-3-yl)-2-[hydroxy(phenyl)(pyridin-2-yl)methyl]-5-methoxy-1H-imidazo[4,5-b]pyridine-6-carboxamide], the IC50 against ACSS2 [1] and against ACSS2 [2] was 0.01 to 1 nM each time. The MNT result in the data set on CHO-K1 cells is given as “in-conclusive”.

`CCc1c(C(O)(c2ccccc2)c2ccccn2)nc2cc(OC)c(C(=O)Nc3ncn(CC)n3)cn12` (racemic) [Compound 16, 3-Ethyl-2-(hydroxy-phenyl-pyridin-2-yl-methyl)-7-methoxy-imidazo[1,2-a]pyridine-6-carboxylic acid (1-ethyl-1H-[1,2,4]triazol-3-yl)-amide]: the results for the IC50 at ACSS2 [1] and at ACSS2 [2] were 10 to 100 nM and 1 to 10 nM, respectively. Also, the MNT result in the data set on CHO-K1 cells is listed as “A”.

Consider `CCn1cnc(NC(=O)c2cc3c(nc2F)nc(C(O)(c2ccccc2)c2ccccc2)n3CC)n1` [Compound 89, 1-ethyl-N-(1-ethyl-1H-1,2,4-triazol-3-yl)-5-fluoro-2-(hydroxydiphenylmethyl)-1H-imidazo[4,5-b]pyridine-6-carboxamide], for which the IC50 against ACSS2 [1] and against ACSS2 [2] was 1 to 10 nM throughout. Also, the MNT entry in the data set on CHO-K1 cells is on record as “A”.

In the case of `CCc1c(C(O)(c2ccccc2)c2ccccc2)nc2cc(Cl)c(C(=O)Nc3ncn(CC)n3)cn12` [Compound 14, 7-Chloro-3-ethyl-2-(hydroxy-diphenylmethyl)-imidazo[1,2-a]pyridine-6-carboxylic acid (1-ethyl-1H-[1,2,4]triazol-3-yl)-amide], the IC50 against ACSS2 [1] and against ACSS2 [2] was 1 to 10 nM throughout. For the same compound, the MNT result with CHO-K1 cells is on record as “A”.

For `CCn1cnc(NC(=O)c2cc3c(nc2OC)nc(C(O)(c2ccccc2F)c2ccccc2F)n3CC)n1` [Compound 102, 2-[bis(2-fluorophenyl)(hydroxy)methyl]-1-ethyl-N-(1-ethyl-1H-1,2,4-triazol-3-yl)-5-methoxy-1H-imidazo[4,5-b]pyridine-6-carboxamide], the figures for the IC50 against ACSS2 [1] and against ACSS2 [2] were 1 to 10 nM and 0.01 to 1 nM, respectively. Besides, the MNT entry in the data set with CHO-K1 cells is on record as “A”.

In the case of `CCc1c(C(O)(c2ccccc2)c2ccccc2)nc2ccc(C(=O)Nc3ncn(CC)n3)cn12` [Compound 25, 3-Ethyl-2-(hydroxy-diphenyl-methyl)-imidazo[1,2-a]pyridine-6-carboxylic acid (1-ethyl-1H-[1,2,4]triazol-3-yl)-amide], the figures for the IC50 against ACSS2 [1] and against ACSS2 [2] were 1 to 10 nM and 0.01 to 1 nM, respectively. For the same compound, the MNT result in the data set on CHO-K1 cells is on record as “A”.

For `CCn1c(C(O)(c2ccccc2)c2ccccc2)nc2ccc(C(=O)NC[C@@H](C)O)cc21` [Reference Compound, 3-Ethyl-2-[hydroxy(diphenyl)methyl]-N-[(2R)-2-hydroxypropyl]benzimidazole-5-carboxamide, reference compound], the IC50 against ACSS2 [1] was in the range of 1 to 10 nM; against ACSS2 [2], 0.01 to 1 nM. In addition, the MNT result in the data set with CHO-K1 cells is recorded as “B”.

`CCc1c(C(O)(c2ccccc2)c2ccccc2)nc2cc(OC)c(C(=O)Nc3ncn(CC)n3)cn12` [Compound 24, 3-Ethyl-2-(hydroxy-diphenyl-methyl)-7-methoxy-imidazo[1,2-a]pyridine-6-carboxylic acid (1-ethyl-1H-[1,2,4]triazol-3-yl)-amide]: the results for the IC50 against ACSS2 [1] and at ACSS2 [2] were 1 to 10 nM and 0.01 to 1 nM, respectively. The MNT result in the data set on CHO-K1 cells is “A”.

Take `CCc1c(C(O)(c2ccccc2F)c2ccccc2F)nn2cc(OC)c(C(=O)Nc3cnn(CC)c3)cc12` [Compound 4, 2-[Bis-(2-fluoro-phenyl)-hydroxy-methyl]-3-ethyl-6-methoxy-pyrazolo[1,5-a]pyridine-5-carboxylic acid (1-ethyl-1H-pyrazol-4-yl)-amide]: the figures for the 50% inhibitory concentration (IC50) at ACSS2 [1] and against ACSS2 [2] were 10 to 100 nM and 1 to 10 nM, respectively. Moreover, the MNT entry with CHO-K1 cells is reported as “A”.

Turning to `CCc1c(C(O)(c2ccccc2)c2ccccc2)nc2cc(Cl)c(C(=O)Nc3cnn(CC)c3)cn12` [Compound 19, 7-Chloro-3-ethyl-2-(hydroxy-diphenylmethyl)-imidazo[1,2-a]pyridine-6-carboxylic acid (1-ethyl-1H-pyrazol-4-yl)-amide], the half-inhibitory concentration (IC50) on ACSS2 [1] and at ACSS2 [2] was 10 to 100 nM throughout. In the data set on CHO-K1 cells, the MNT entry is reported as “A”.

Turning to `CCc1c(C(O)(c2ccccc2F)c2ccccc2F)nn2ccc(C(=O)Nc3ncn(CC)n3)cc12` [Compound 5, 2-[Bis-(2-fluoro-phenyl)-hydroxy-methyl]-3-ethyl-pyrazolo[1,5-a]pyridine-5-carboxylic acid (1-ethyl-1H-[1,2,4]triazol-3-yl)-amide], the IC50 against ACSS2 [1] is 0.01 to 1 nM; against ACSS2 [2] it was 1 to 10 nM. The MNT result with CHO-K1 cells is “A”.

In the case of `CCn1cnc(NC(=O)c2cc3c(nc2OC)nc(C(O)(c2ccccc2)c2ccccc2)n3CC)n1` [Compound 103, 1-ethyl-N-(1-ethyl-1H-1,2,4-triazol-3-yl)-2-(hydroxydiphenylmethyl)-5-methoxy-1H-imidazo[4,5-b]pyridine-6-carboxamide], the IC50 at ACSS2 [1] lay in the range of 1 to 10 nM; on ACSS2 [2] it was 0.01 to 1 nM. Besides, the MNT result with CHO-K1 cells is reported as “A”.

Consider `CCc1c(C(O)(c2ccccc2F)c2ccccc2F)nc2cc(OC)c(C(=O)Nc3cnn(CC)c3)cn12` [Compound 30, 2-[Bis-(2-fluoro-phenyl)-hydroxy-methyl]-3-ethyl-7-methoxy-imidazo[1,2-a]pyridine-6-carboxylic acid (1-ethyl-1H-pyrazol-4-yl)-amide], for which the 50% inhibitory concentration (IC50) at ACSS2 [1] was in the range of 0.01 to 1 nM; on ACSS2 [2] it was 1 to 10 nM. For the same compound, the MNT entry in the data set on CHO-K1 cells is recorded as “A”.

The values are drawn from patent US20230271956A1, “AMIDE DERIVATIVES” (Merck Patent GmbH, priority 2020, published 2023).
